# Measurements as given in patent US20260060947A1 (INSTITUT PASTEUR DE MONTEVIDEO, priority 2019, published 2026).
# “Also recorded” adds a separate entry of the source.
# Legend:
# NF-κB = experiment: LPS-induced NF-κB-dependent gene expression in THP-1 cells (qPCR); type: cell-based, Human; settings: 30 μM for 2 hs, then LPS 100 ng/mL
# Method: The effect of BANA or BA over NF-κB-dependent gene expression was studied by qPCR using THP-1 cells. THP-1 cells were differentiated into macrophages and treated with BANA (30 μM) or BA (30 μM) for 2 hs, followed by stimulation with LPS (100 ng/mL, for 3-4 h).
# TNFα, CCL2, IL6 and IL-1β expression was analyzed by RT-PCR. Real-time PCR analysis was conducted as follows: Total mRNA was extracted from THP-1 cells to quantify TNFα, IL-6 and MCP-1-fold change gene expression over control (β-actin) by qPCR assay. Purified RNA was transcripted to cDNA using Superscript II Reverse Transcriptase with Oligo (dT). The cDNA for real-time PCR was obtained with a Piko 24 Thermal Cycler (Thermo Scientific). mRNA expression analysis was calculated using the ddCt method with β-Actin as the house keeping gene. SYBR Green was used as DNA binding dye and the qRT-PCR was done in an Eco Illumina thermocycler. Human primers sequences were used for THP-1 cells: […]
# SOD1^G93A rats [1] = experiment: Neuromuscular junction innervation analysis in whole mounted EDL muscle; type: in vivo, rat; settings: 100 mg/kg/day post-paralysis; vs vehicle
# Method: Extensor digitorium longus (EDL) muscles from the NonTg and SOD1^G93A hind limbs were dissected. Then, tissues were blocked for 2 h at room temperature (BSA 5% v/v, Triton X-100 0.8% v/v in PBS pH=7.4), incubated with primary antibodies or fluorescent probes at 4° C. overnight: axon and post-synaptic plates were carried out using 1:1000 rabbit anti-heavy chain neurofilament-Alexa Fluor 555 (Millipore, #MAB5256A5) and fluorescently labeled a-bungarotoxin-FITC [αBTX, (Thermo Fisher Scientific, B13422)], axon presynaptic terminals were labeled with 1:300 rabbit anti-synaptophysin-Alexa Fluor 555 (Abcam, #ab206870). After washing 4 times with PBS, whole-mount muscles were mounted using DPX. Structural changes of the neuromuscular junction were scored using maximum-intensity projections of images acquired from whole-mounted muscles. Neuromuscular junction innervation analysis was performed taking into consideration those postsynaptic motor endplates occupied by a presynaptic axon terminal, where full innervation was defined as at least 80% of overlapping between pre- and postsynaptic. An average of 100 neuromuscular junctions per animal was analyzed using the ImageJ software.
# SOD1^G93A rats [2] = experiment: Immunohistochemical analysis of gliosis in the ventral horn of lumbar spinal cord; type: in vivo, rat; settings: 15 days post-paralysis
# Method: After 15 days of treatment using 100 mg/kg/day of BANA, starting after paralysis onset, animals were deeply anesthetized and transcardial perfusion was performed with 0.9% saline and 4% paraformaldehyde in […] (pH 7.2-7.4). Fixed spinal cords were removed, post-fixed by PFA 4% immersion overnight, and then transverse sectioned (30 m) in a Leica cryostat. Serial sections were collected in 100 mM PBS for immunohistochemistry.
# At least 4 rats were analyzed for each immunohistochemistry experiment. Three different conditions were studied as follows: 1) non-transgenic (NonTg) rats of 160-180 days; 2) transgenic SOD1^G93A rats of 195-210 days treated with vehicle (paralysis, 15 d-vehicle) and 3) transgenic SOD1^G93A rats of 195-210 days treated with 50 or 100 mg/kg/day of BANA during 15 days. After treatment animals were deeply anesthetized and transcardial perfusion was performed with paraformaldehyde 4% (v/v) in PBS pH=7.4. Fixed spinal cords were removed, post-fixed by immersion overnight in paraformaldehyde 4% (v/v) in PBS pH=7.4, and then transverse sectioned (30 m) in a Leica cryostat. Serial sections were collected in PBS pH=7.4 for immunohistochemistry.
# Free-floating sections were blocked and permeabilized for 1 hour at room temperature with 0.5% Triton X-100 and 5% BSA in PBS (pH=7.4), passed through washing buffered solutions, and incubated overnight at 4° C. in a solution of 0.5% Triton X-100 and BSA 1% in PBS (pH=7.4) containing the primary antibodies: mouse anti-GFAP (G3893 1:400), rabbit anti-GFAP (Sigma #G9269 1:400), mouse anti-S1000 (Sigma #S2532 1:400), rabbit anti-Iba1 (Wako #019-19741, 1:500), rabbit anti-ChAT (Choline acetyltransferase) (Millipore, #AB143, 1:300), mouse anti-CD68 (Abcam, #ab31630, 1:300), rabbit anti-CD34 (Abcam, #ab81289, 1:200), rabbit anti-Ki67 (Abcam, #ab66155, 1:300), rabbit anti-NF-κB-p65 (Abcam, #ab16502, 1:200), rabbit anti-Ki67 (Abcam, #ab16667, 1:200), rabbit anti-ubiquitin (Millipore, #05-1307, 1:200), mouse anti-nitrotyrosine (Millipore, #05233, 1:200), anti-VGlut-1 (SySy, #135-303, 1:300), anti-synaptophysin (Abcam, #206870, 1:300), anti-0111-Tubulin (Millipore, #MAB1637, 1:200).
# The inventors assessed the effect of BANA on markers of neuroinflammation in the degenerating spinal cords. SOD1^G93A rats were treated daily with BANA (100 mg/kg) or vehicle at the onset of motor symptoms. After 15 days of treatment, rats were euthanized and spinal cords were dissected for immunohistological analysis.
# Experiments to assess the effect of BANA on markers of neuroinflammation in the degenerating spinal cords were conducted in rats. SOD1^G93A rats were treated with BANA (100 mg/kg/day) or vehicle at the onset of symptoms. After 15 days of treatment rats were euthanized and spinal cord was removed for histological analysis.
# Microgliosis and astrogliosis were assessed by counting the expression intensity for the different markers in gray matter from the lumbar cord of non-transgenic, SOD1^G93A onset or symptomatic rats that were treated with either vehicle or BANA. The number of aberrant glial cells co-expressing the astrocytic markers GFAP and S1000 was assessed by counting the respective positive cells for both markers in gray matter from the lumbar cord of non-transgenic, SOD1^G93A onset or symptomatic rats that were treated with either vehicle or BANA. The analysis was performed in at least 10 histological sections per animal (three different rats for each condition) using the ImageJ software. Statistical studies were performed using statistical tools of GraphPad Prism 7 software. Descriptive statistics were used for each group, and Kruskal-Wallis analysis, followed by Dunn's comparison test, was used among groups. All results are presented as mean±SEM, with p<0.05 considered significant.
smiles,measurement,setting,value
"O=C(O)c1ccc(/C=C/[N+](=O)[O-])cc1 [BANA, (E)-4-(2-nitrovinyl) benzoic acid]","levels of mRNA coding for TNFα, MCP-1 and IL-6",NF-κB,potently prevented; also recorded: abrogated
same,motor endplate denervation in the EDL muscle,SOD1^G93A rats [1],significantly reduced
same,astrogliosis (GFAP),SOD1^G93A rats [2]; 50 mg/kg/day,failed to reduce
same,microgliosis (Iba1),SOD1^G93A rats [2]; 50 mg/kg/day,significantly reduced
same,astrocytosis (GFAP staining),"SOD1^G93A rats [2]; 100 mg/kg/day, vs vehicle",significantly reduced
same,cell proliferation in the ventral horn (Ki67-positive nuclei),"SOD1^G93A rats [2]; 100 mg/kg/day, vs vehicle",decreased; also recorded: significantly reduced
same,emergence of aberrant glial cells (GFAP/S100β) in the surroundings of motor neurons,"SOD1^G93A rats [2]; 100 mg/kg/day, vs vehicle",significantly reduced
same,"microgliosis in the ventral horn (Iba1-, CD68-, CD34-positive cells)","SOD1^G93A rats [2]; 100 mg/kg/day, vs vehicle",significantly reduced
